Two compounds from patent US7625896B2, “Pyridylsulfonamide derivatives” (Hoffman-La Roche Inc., priority 2005, dated 2009) can be followed below.

Each structure is given as a SMILES string.

This experiment relates to HCT 116 cells. The experiment in a line: Viability assay in HCT 116 cells (CellTiter-Glo Luminescent Cell Viability Assay). In kind it is cell-based. The note with it: HCT 116 human colon carcinoma cells, 5 days (120 h) incubation, 10 concentrations 30 μM to 0.0015 μM, ATP luminescence. The protocol: Viability Assay in HCT 116 Cells
A viability assay was performed using the CellTiter-Glo® Luminescent Cell Viability Assay (see Promega Corporation's Technical Bulletin No. 288, pp. 1-11 [revised February 2004] which is hereby incorporated by reference in its entirety). This assay is a homogeneous method of determining the number of viable cells in culture based on quantitation of the ATP present, an indicator of metabolically active cells. The assay is designed for use with multiwell formats, making it ideal for automated high-throughput screening (HTS), cell proliferation and cytotoxicity assays. The homogeneous assay procedure involves adding a single reagent (containing luciferase, luciferan substrate, and buffer) directly to cells cultured in serum-supplemented medium. Cell washing, removal of medium and multiple pipetting steps are not required. The system detects as few as 15 cells/well in a 384-well format in 10 minutes after adding reagent and mixing.
The homogeneous “add-mix-measure” format results in cell lysis and generation of a luminescent signal proportional to the amount of ATP present. The amount of ATP is directly proportional to the number of cells present in culture. The above-referenced assay generates a “glow-type” luminescent signal, produced by the luciferase reaction, which has a half-life generally greater than five hours, depending on cell type and medium used. The extended half-life eliminates the need to use reagent injectors and provides flexibility for continuous or batch mode processing of multiple plates. The unique homogeneous format avoids errors that may be introduced by other ATP measurement methods that require multiple steps.
HCT 116 cells (human colon carcinoma, ATCC-No. CCl-247) were cultivated in RPMI 1640 medium with GlutaMAX™ I (cell culture media that contains L-Alanyl-L-Glutamine [a stabilized form/source of L-Glutamine] from Invitrogen, Cat-No. 61870-010), 5% Fetal Calf Serum (FCS, Sigma Cat-No. F4135 (FBS)); 100 Units/ml penicillin/100 μg/ml streptomycin (=Pen/Strep from Invitrogen Cat. No. 15140). For the assay the cells were seeded in 384 well plates, 1000 cells per well, in the same medium. The next day the test compounds were added in various concentrations ranging from 30 μM to 0.0015 μM (10 concentrations, 1:3 diluted). After 5 days the viability assay was performed according to the instructions of the manufacturer. In brief: the cell-plate was equilibrated to room temperature for approximately 30 minutes and then the reagent (containing luciferase, luciferan substrate, and buffer) was added. The contents were carefully mixed for 15 minutes to induce cell lysis. After 45 minutes the luminescent signal was measured in Victor 2, (scanning multiwell spectrophotometer, Wallac).
1st. Day: • Medium: RPMI 1640 with GlutaMAX™ I (Invitrogen, Cat-No. 61870), 5% FCS (Sigma Cat.-No. F4135), Pen/Strep (Invitrogen, Cat No. 15140). • HCT116 (ATCC-No. CCl-247): 1000 cells in 60 μl per well of 384 well plate (Greiner 781098, μClear-plate white) • After seeding incubate plates 24 h at 37° C., 5% CO2
2nd. Day: Induction (Treatment with Compounds, 10 Concentrations):
In order to achieve a final concentration of 30 μM as highest concentration 3.5 μl of 10 mM compound stock solution were added directly to 163 μl media. Then step e) of the dilution procedure described below, was followed.
A general note: ATP-based viability assays read luminescence as a measure of living cells.

For orientation: IC50 means the point on the concentration scale where inhibition reaches its midpoint. Higher therefore signals weaker potency in that assay. `O=C(NS(=O)(=O)c1ccc(N2CCCCCC2)nc1)c1ccc(F)cc1C(F)(F)F` [Example 1-78, 6-Azepan-1-yl-pyridine-3-sulfonic acid 4-fluoro-2-trifluoromethyl-benzoylamide] registered a 50% inhibitory concentration (IC50) of 1 to 16 µM.

As to `O=C(NS(=O)(=O)c1ccc(N2CCSCC2)nc1)c1ccc(F)cc1C(F)(F)F` [Example 1-80, 6-Thiomorpholin-4-yl-pyridine-3-sulfonic acid 4-fluoro-2-trifluoromethyl-benzoylamide], the IC50 was in the range of 1 to 16 µM.
